Test results taken from patent publication US8853359B2, “Endokinin C/D-derived peptides” (University of Miyazaki, priority 2009, dated 2014).

What was measured:
Format in all cases: in vivo, rat
[1] = system: SP-induced thermal hyperalgesia; assay: SP-induced thermal hyperalgesia (withdrawal latency) after intrathecal pre-administration of peptide; conditions: 10^-3M (10 nmol/10 μl) peptide intrathecal, FIG. 7
Text: In this test, the effects of intrathecal pre-administration with D-EKC/D (1), (2), and (3) on the induction of thermal hyperalgesia following intrathecal administration of SP were confirmed using as an index thermal hyperalgesia, which is one type of pain-related behavior. The effects can be evaluated based on withdrawal latency period, which is the time required for withdrawal response to take place after application of noxious thermal stimulation to plantar using infrared rays.
In Example 4, 10^−3M (10 nmol/10 μl) D-EKC/D (1), (2), or (3) was administered to intrathecally catheterized rats via catheters, intrathecal administration of 10^−6M (10 pmol/10 μl) SP was performed at 4 hours and at 8 hours after administration of D-EKC/D, the presence or the absence of hyperalgesia following intrathecal administration of SP was evaluated based on the time (latency period) required for withdrawal response to take place, the latency period following SP administration in rats pretreated with D-EKC/D and the latency period resulting from administration of SP alone were compared, and thus the effects of preadministration of D-EKC/D (1), (2), and (3) were evaluated.

[2] = system: carrageenan-induced inflammation; assay: carrageenan-induced increase in paw size after intrathecal pre-administration of peptide
Procedure: (§1) In Example 6, 10^−3M (10 nmol/10 μl) D-EKC/D (3), (5), or (7), Spantide I, or saline (10 μl) was administered to intrathecally catheterized rats via catheters. Four hours later, 100 μl of 2% carrageenan (2 mg/100 μl) was subcutaneously administered to rat plantar.
Paw size was measured with time for 60 minutes after carrageenan administration. The paw size (control) before carrageenan administration was designated as the basal level, and the increases in paw size were then calculated.

[3] = system: carrageenan-induced thermal hyperalgesia; assay: withdrawal latency to noxious thermal stimulation after carrageenan, intrathecal pre-administration of peptide; conditions: 10^-3M (10 nmol/10 μl) peptide intrathecal; 2% carrageenan 4 hours later; FIG. 9B
Procedure: as §1
Meanwhile, noxious thermal stimulation was applied to paw plantar using infrared rays at 10-minute intervals after carrageenan administration. The time (latency period) required for withdrawal response to take place was measured. The latency period before untreated rats following noxious thermal stimulation was designated as the control latency period.

[4] = paw size after subcutaneous administration of peptide alone to plantar; conditions: 10^-3M D-EKC/D (3) subcutaneous to plantar; for paw plantar size after administration of peptide alone: FIG. 10A
Procedure: 100 μlof saline or 10^−3M (100 nmol/100 D-EKC/D (3) was subcutaneously administered to rat plantar. Paw size was measured with time for 60 minutes after administration. Paw size (control) before administration was designated as the basal level, and increases in paw size were then calculated.

[5] = system: carrageenan-induced inflammation; assay: carrageenan-induced increase in paw size after subcutaneous pre-administration of peptide to plantar; conditions: 10^-3M (100 nmol/100 μl) subcutaneous to plantar
Procedure: 100 μl of saline, 10^−3M (100 nmol/100 μl) D-EKC/D (3), or 10^−3M (100 nmol/100 μl) Spantide II (N^6-[(3-pyridinyl)carbonyl]-D-Lys-L-Pro-3-(3-pyridinyl)-L-Ala-L-Pro-3,4-dichloro-D-Phe-L-Asn-D-Trp-L-Phe-D-Trp-L-Leu-L-Nle-NH2) (SEQ ID NO: 21) was subcutaneously administered to rat plantar. Four (4) hours later, 100 μl (2 mg/100 μl) of 2% carrageenan was subcutaneously administered to rat plantar. Paw size was measured every 10 minutes for 60 minutes after carrageenan administration. The paw size (control) before carrageenan administration was designated as the basal level and increases in paw size were then calculated.
Procedures similar to those in Experiment B were performed, except for administration of carrageenan at 8 hours after administration of saline, D-EKC/D (3), or Spantide II.
Procedures similar to those in Experiment B were performed except that the test with Spantide II was not conducted and carrageenan was administered at 14 hours after administration of saline or D-EKC/D (3).

Ala-Tyr-Gln-Leu-Glu-His-Thr-Phe-Gln-DTrp-Leu-Leu-NH2 (AYQLEHTFQXLL; HELM PEPTIDE1{A.Y.Q.L.E.H.T.F.Q.[dW].L.L.[am]}$$$$V2.0; N-terminus assumed; SMILES CC(C)C[C@H](NC(=O)[C@H](CC(C)C)NC(=O)[C@@H](Cc1c[nH]c2ccccc12)NC(=O)[C@H](CCC(N)=O)NC(=O)[C@H](Cc1ccccc1)NC(=O)[C@@H](NC(=O)[C@H](Cc1c[nH]cn1)NC(=O)[C@H](CCC(=O)O)NC(=O)[C@H](CC(C)C)NC(=O)[C@H](CCC(N)=O)NC(=O)[C@H](Cc1ccc(O)cc1)NC(=O)[C@H](C)N)[C@@H](C)O)C(N)=O) [D-EKC/D (3)]
effect on latency period following administration of SP ([1]; 10^-6M SP 4 hours later, saline about 20 seconds, SP about 13 seconds): significantly attenuated | effect on latency period following administration of SP ([1]; 10^-6M SP 8 hours later): significant attenuation | rate of increase of paw sizes ([2]; 10^-3M (10 nmol/10 μl) peptide intrathecal, 2% carrageenan 4 hours later, FIG. 9A): significant decreases | effects on paw size and withdrawal time compared with Spantide I ([2]; 10^-3M intrathecal, carrageenan 4 hours later): sustained to a greater extent than the effects of Spantide I | withdrawal time (latency period) [3]: significant increases | inflammation reaction caused by the peptide [4]: no inflammation reaction took place | paw plantar size after administration of peptide alone ([4]; 60 minutes after administration): restored to near the basal (control) level | paw plantar size after administration of peptide alone ([4]; early after administration): tentatively increased | increases in paw size accompanying carrageenan-induced inflammation ([5]; carrageenan 4 hours later, FIG. 10B): suppressed increases in paw size accompanying carrageenan-induced inflammation more significantly than administration of Spantide II | increases in paw size accompanying carrageenan-induced inflammation ([5]; carrageenan 8 hours later, FIG. 10C): suppressed increases in paw size | increases in paw size accompanying carrageenan-induced inflammation ([5]; carrageenan 14 hours later, FIG. 10D): suppressed increases in paw size
